Results reported in PubChem BioAssay AID588698 (Southern Research Specialized Biocontainment Screening …, 2011).
Inconclusive results are not listed. The source made the active and inactive calls.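 The calls were made as follows: active = inhibition of 30% or more at any tested concentration; inactive = the rest, inconclusive results apart.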

target: M1-family alanyl aminopeptidase (Plasmodium falciparum 3D7); assay: malaria M1 alanyl aminopeptidase inhibitors – biochemical, QFRET, H-Leu-NHMec substrate, selectivity assay for PfM17LAP inhibitor project, dose response (AID 588698); conditions: recombinant PfM1AAP, H-Leu-NHMec fluorogenic substrate cleavage

Row | SMILES | IC50 [µM]
1 | O=C(Cc1ccc2ccccc2c1)NO | 33.7
2 | O=C(Cc1cccc2ccccc12)NO | 79.4

same assay, conditions: recombinant PfM1AAP, H-Leu-NHMec fluorogenic substrate cleavage; at 100 µM (top of the series)

Row | SMILES | inhibition
3 | O=C(CSc1nccc(=O)[nH]1)Nc1ccc(N2CCOCC2)cc1 | inactive
4 | COc1cc(NC(=O)c2ccc(-c3ccccc3)cc2)c(C(=O)O)cc1OC | inactive
5 | O=C(CSc1nccc(=O)[nH]1)Nc1ccc(Oc2ccccc2)cc1 | inactive
6 | COC(=O)c1ccccc1NC(=O)c1ccc2c(Cl)c3c(nc2c1)CCC3 | inactive
7 | Cc1cc(SCC(=O)Nc2ccccc2C(=O)O)nc2ccccc12 | inactive
8 | COc1cc(NC(=O)CSc2ccccc2)c(C(=O)O)cc1OC | inactive
9 | CC1=C(C)CC(C(=O)Nc2ccc(Oc3ccc(Cl)cc3)cc2)C(C(=O)O)C1 (stereo not drawn) | inactive
10 | O=C(O)c1ccccc1C(=O)Nc1nc2c(s1)CCCC2 | inactive
11 | CCn1c2ccccc2c2cc(NC(=O)CSc3nc(C)cc(=O)[nH]3)ccc21 | inactive
12 | COC(=O)c1cc(OC)c(OC)cc1NC(=O)c1sc2nc(C)ccc2c1N | inactive
13 | CC1CCc2sc(C(=O)Nc3cccc4c3C(=O)NC4)cc2C1 (stereo not drawn) | inactive
14 | COc1ccc(OCCC(=O)NO)cc1 | inactive
15 | NC(N)=NCCC[C@H](N)C(=O)NO | inactive
16 | Cc1cc(=O)[nH]c(SCC(=O)Nc2ccccc2)n1 | inactive
17 | O=C(CSc1nc(O)cc(=O)[nH]1)Nc1ccccc1 | inactive
18 | O=C(Nc1ccc(Cl)cc1)Nc1ccccc1C(=O)O | inactive
19 | COc1ccc(-c2nnc(NC(=O)C3CC(C)=C(C)CC3C(=O)O)s2)cc1 (stereo not drawn) | inactive
20 | COC(=O)c1c(NC(=O)C2CCCCC2C(=O)O)sc2c1CCC(c1ccccc1)C2 (stereo not drawn) | inactive
21 | CC(C)C[C@H](N)C(=O)NO | inactive
22 | COC(=O)c1ccccc1NC(=O)c1cc2cc3ccc(C)cc3nc2s1 | inactive
23 | CC1=C(C)CC(C(=O)Nc2nc(-c3cc(C)ccc3C)c(C)s2)C(C(=O)O)C1 (stereo not drawn) | inactive
24 | COC(=O)c1c(NC(=O)C2CC=CCC2C(=O)O)sc(C)c1-c1ccc(C)cc1 (stereo not drawn) | inactive
25 | COC(=O)c1c(NC(=O)c2ccccc2C(=O)O)sc2c1CCCC2 | inactive
26 | Cc1ccc(NC(=O)CSc2nc(O)cc(=O)n2Cc2ccccc2)cc1 | inactive
27 | CCC(C)(C)C1CCc2c(sc(NC(=O)C3CC(C)=C(C)CC3C(=O)O)c2C(=O)OC)C1 (stereo not drawn) | inactive
28 | O=C1OCCC1Sc1nnc(NC2CCCCC2)s1 (stereo not drawn) | inactive
